One block for each molecule: values may come before it.
Tested on: 276233-004-R-J1-PDC complex spheroid viability
Experiment: Anticancer human tumor 276233-004-R-J1-PDC patient-derived colon adenocarcinoma cell line growth inhibition [GQUAD]
Details: for IC50: curve of first compound; for viability, T/C: stronger effect = lower value
Procedure, shortened: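 Tumor cells were grown as complex spheroids with HUVEC endothelial cells and mesenchymal stem cells as stroma. G-quadruplex stabilizers were combined with targeted agents over half-log dilutions from near the clinical Cmax, or from 10 microM.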

[1] = second compound 0.0316 µM, first compound 0.0316 µM
[2] = second compound 0.0316 µM, first compound 0.1 µM
[3] = second compound 0.0316 µM, first compound 0.316 µM
[4] = second compound 0.0316 µM, first compound 1 µM
[5] = second compound 0.0316 µM, first compound 3.16 µM
[6] = second compound 0.0316 µM, first compound 10 µM
[7] = second compound 0.1 µM, first compound 0.0316 µM
[8] = second compound 0.1 µM, first compound 0.1 µM
[9] = second compound 0.1 µM, first compound 0.316 µM
[10] = second compound 0.1 µM, first compound 1 µM
[11] = second compound 0.1 µM, first compound 3.16 µM
[12] = second compound 0.1 µM, first compound 10 µM
[13] = second compound 0.316 µM, first compound 0.0316 µM
[14] = second compound 0.316 µM, first compound 0.1 µM
[15] = second compound 0.316 µM, first compound 0.316 µM
[16] = second compound 0.316 µM, first compound 1 µM
[17] = second compound 0.316 µM, first compound 3.16 µM
[18] = second compound 0.316 µM, first compound 10 µM
[19] = second compound 1 µM, first compound 0.0316 µM
[20] = second compound 1 µM, first compound 0.1 µM
[21] = second compound 1 µM, first compound 0.316 µM
[22] = second compound 1 µM, first compound 1 µM
[23] = second compound 1 µM, first compound 3.16 µM
[24] = second compound 1 µM, first compound 10 µM
[25] = second compound 3.16 µM, first compound 0.0316 µM
[26] = second compound 3.16 µM, first compound 0.1 µM
[27] = second compound 3.16 µM, first compound 0.316 µM
[28] = second compound 3.16 µM, first compound 1 µM
[29] = second compound 3.16 µM, first compound 3.16 µM
[30] = second compound 3.16 µM, first compound 10 µM
[31] = second compound 10 µM, first compound 0.0316 µM
[32] = second compound 10 µM, first compound 0.1 µM
[33] = second compound 10 µM, first compound 0.316 µM
[34] = second compound 10 µM, first compound 1 µM
[35] = second compound 10 µM, first compound 3.16 µM
[36] = second compound 10 µM, first compound 10 µM
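Note: spheroids exposed to drugs for seven days.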
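Throughout, for viability, T/C: 100% = DMSO vehicle control viability.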

IC50 (second compound 0.0316 µM): > 10000 nM
IC50 (second compound 0.1 µM): > 10000 nM
IC50 (second compound 0.316 µM): > 10000 nM
IC50 (second compound 1 µM): 3000 nM
IC50 (second compound 3.16 µM): 994 nM
IC50 (second compound 10 µM): 995 nM
Compound: CC(C)(O)C1CCC(Nc2ccc3ncc(-c4cccc(C(F)(F)F)c4)n3n2)CC1 (stereo unspecified) + Cc1cnc(CNC(=O)c2c(=O)c3ccc(N4CCCN(C)CC4)nc3n3c2sc2ccccc23)cn1
viability, T/C [1]: 94.9%
viability, T/C [2]: 79.8%
viability, T/C [3]: 81.8%
viability, T/C [4]: 70.6%
viability, T/C [5]: 55.2%
viability, T/C [6]: 58.8%
viability, T/C [7]: 83.2%
viability, T/C [8]: 109%
viability, T/C [9]: 78.4%
viability, T/C [10]: 68.9%
viability, T/C [11]: 49.4%
viability, T/C [12]: 55.6%
viability, T/C [13]: 84.3%
viability, T/C [14]: 92.5%
viability, T/C [15]: 83.7%
viability, T/C [16]: 63.1%
viability, T/C [17]: 54%
viability, T/C [18]: 49.5%
viability, T/C [19]: 80.4%
viability, T/C [20]: 89.2%
viability, T/C [21]: 84.7%
viability, T/C [22]: 67.7%
viability, T/C [23]: 50.4%
viability, T/C [24]: 45.4%
viability, T/C [25]: 79.9%
viability, T/C [26]: 74.3%
viability, T/C [27]: 69.8%
viability, T/C [28]: 51.1%
viability, T/C [29]: 34.7%
viability, T/C [30]: 39.1%
viability, T/C [31]: 75.6%
viability, T/C [32]: 57%
viability, T/C [33]: 58.6%
viability, T/C [34]: 50.5%
viability, T/C [35]: 7.86%
viability, T/C [36]: 3.2%

Compound: C=CCn1c(=O)c2cnc(Nc3ccc(N4CCN(C)CC4)cc3)nc2n1-c1cccc(C(C)(C)O)n1 + CN(C)c1ccc(Nc2c3ccc(NC(=O)CCN4CCCC4)cc3nc3cc(NC(=O)CCN4CCCC4)ccc23)cc1
IC50 (second compound 0.0316 µM): > 10000 nM
IC50 (second compound 0.1 µM): > 10000 nM
IC50 (second compound 0.316 µM): > 10000 nM
IC50 (second compound 1 µM): < 31.6 nM
IC50 (second compound 3.16 µM): 459 nM
IC50 (second compound 10 µM): < 31.6 nM
viability, T/C [1]: 87.6%
viability, T/C [2]: 86.2%
viability, T/C [3]: 66.3%
viability, T/C [4]: 68.4%
viability, T/C [5]: 68.6%
viability, T/C [6]: 88.7%
viability, T/C [7]: 81.6%
viability, T/C [8]: 80.5%
viability, T/C [9]: 49%
viability, T/C [10]: 64.7%
viability, T/C [11]: 53.2%
viability, T/C [12]: 67.9%
viability, T/C [13]: 81.5%
viability, T/C [14]: 67.3%
viability, T/C [15]: 54.6%
viability, T/C [16]: 51.6%
viability, T/C [17]: 54.8%
viability, T/C [18]: 75%
viability, T/C [19]: 47.1%
viability, T/C [20]: 56.2%
viability, T/C [21]: 49.7%
viability, T/C [22]: 42.5%
viability, T/C [23]: 54.7%
viability, T/C [24]: 74%
viability, T/C [25]: 56.9%
viability, T/C [26]: 52.5%
viability, T/C [27]: 57.2%
viability, T/C [28]: 38.1%
viability, T/C [29]: 52.1%
viability, T/C [30]: 40.2%
viability, T/C [31]: 41.4%
viability, T/C [32]: 45.5%
viability, T/C [33]: 53.8%
viability, T/C [34]: 38.9%
viability, T/C [35]: 47.9%
viability, T/C [36]: 54.6%

Compound: O=C(NO)c1cnc(N2CCN(S(=O)(=O)c3ccc4ccccc4c3)CC2)nc1 + Cc1[nH]c2ccc(F)cc2c1-c1nc2c3cccnc3c3ncccc3c2[nH]1
IC50 (second compound 0.0316 µM): 427 nM
IC50 (second compound 0.1 µM): 372 nM
IC50 (second compound 0.316 µM): 360 nM
IC50 (second compound 1 µM): 102 nM
IC50 (second compound 3.16 µM): < 31.6 nM
IC50 (second compound 10 µM): < 31.6 nM
viability, T/C [1]: 87.1%
viability, T/C [2]: 86%
viability, T/C [3]: 66.7%
viability, T/C [4]: 2.71%
viability, T/C [5]: 0.44%
viability, T/C [6]: 0.48%
viability, T/C [7]: 83.2%
viability, T/C [8]: 108%
viability, T/C [9]: 57.9%
viability, T/C [10]: 5.03%
viability, T/C [11]: 0.38%
viability, T/C [12]: 0.83%
viability, T/C [13]: 50.4%
viability, T/C [14]: 71.8%
viability, T/C [15]: 56.1%
viability, T/C [16]: 2.35%
viability, T/C [17]: 2.07%
viability, T/C [18]: 0.4%
viability, T/C [19]: 58.8%
viability, T/C [20]: 41.5%
viability, T/C [21]: 42.8%
viability, T/C [22]: 3.96%
viability, T/C [23]: 1.07%
viability, T/C [24]: 0.62%
viability, T/C [25]: 17.4%
viability, T/C [26]: 17%
viability, T/C [27]: 14.8%
viability, T/C [28]: 1.23%
viability, T/C [29]: 1.33%
viability, T/C [30]: 0.42%
viability, T/C [31]: 26.4%
viability, T/C [32]: 26.6%
viability, T/C [33]: 22.1%
viability, T/C [34]: 3.12%
viability, T/C [35]: 1.25%
viability, T/C [36]: 0.61%
